Experimental data from article PMC5515969, “Effects of 31 FDA approved small-molecule kinase inhibitors on isolated rat liver mitochondria” (Archives of Toxicology, 2016).

Assays:
[1] = test system: isolated rat liver mitochondria; test: Mitochondrial oxygen consumption (glutamate/malate or succinate driven, state 4 and state 3); assay type: biochemical; conditions: DMSO treated samples set as 1; for State 3 respiration driven by succinate at 10XCmax: key: 0 indicates that the drug had no effects (negative); for State 3 respiration driven by succinate at 1XCmax: key: 0 indicates that the drug had no effects (negative)
Outline: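 Rat liver mitochondria (1 mg/ml protein) exposed 5 min to kinase inhibitors in 0.1% DMSO, then O2 consumption measured by Clark-type electrode with glutamate/malate or succinate (state 4), ADP added after 3 min (state 3). Rates normalized to 0.1% DMSO controls set to 1.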

RCC I = RCC I activity in submitochondrial particles; assay type: biochemical, rat; set-up: key to RCC I at 10XCmax / RCC I at 100XCmax / RCC I at 50XCmax / RCC I at 30XCmax / RCC I at 20XCmax: activity relative to DMSO-treated controls (control set as 1 = 100%); conditions: 10XCmax; DMSO treated samples set as 1
Outline: (§1)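 Inhibitors preincubated 15 min with submitochondrial particles (1 mg/ml) before activity readout. RCC I (rotenone-sensitive fraction) and I/V: A340, and RCC II: A600, each every 1 min for 6 min; RCC III/IV: A550 every 10 s for 2 min. Activities relative to DMSO control set as 1.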

RCC II = molecular target: T1, RCC II (Rattus norvegicus, UniProt P21913+Q641Z9+Q6PCT8+Q920L2); test: RCC II activity in submitochondrial particles; assay type: biochemical; set-up: key: activity relative to DMSO-treated controls (control set as 1 = 100%); conditions: DMSO treated samples set as 1
T1 construct: Submitochondrial particles were prepared by subjecting the intact mitochondria to three successive freeze–thaw cycles; from tissue; host or cells: rat liver mitochondria, used as submitochondrial particles
Outline: as §1

RCC III = RCC III activity in submitochondrial particles; assay type: biochemical, rat; set-up: key to RCC III at 100XCmax: activity relative to DMSO-treated controls (control set as 1 = 100%); conditions: 100XCmax
Description: (§2) KIs were incubated with submitochondrial particles (1 mg/ml) for 15 min and then RCC I–V activities measured. […] The activities of DMSO-treated samples (controls) were set as 1. […] The difference between the activity from rotenone-containing buffer and rotenone-absent buffer was considered as RCC I activity. […] For measuring RCC I/V and II activity, the changes in absorbance at 340 and 600 nm, respectively, were determined every 1 min for 6 min. For measuring RCC III and RCC IV, the changes in absorbance at 550 nm were measured every 10 s for 2 min.

RCC IV = RCC IV activity in submitochondrial particles; assay type: biochemical, rat; set-up: key to RCC IV at 50XCmax / RCC IV at 100XCmax: activity relative to DMSO-treated controls (control set as 1 = 100%); conditions: 50XCmax; DMSO treated samples set as 1; in %
Description: as §2

RCC V = RCC V activity in submitochondrial particles; assay type: biochemical, rat; conditions: DMSO treated samples set as 1; for RCC V at 5XCmax: key: 0 indicates that the drug had no effects (negative)
Outline: as §1

[2] = test system: isolated rat liver mitochondria; test: Mitochondrial inner membrane potential (MMP), Rhodamine 123; assay type: biochemical; conditions: difference in signal between KI and DMSO treated samples at the end of experiments
Excerpt: Fig. 3 KI effects on mitochondrial inner membrane potential (MMP). […] In a, c, data are means and standard derivations from three separate experiments. *p < 0.05 as compared to DMSO-treated samples at the end of experiments. In b, data are means of two independent experiments

[3] = test system: isolated rat liver mitochondria; test: Mitochondrial swelling (absorbance at 535 nm); assay type: biochemical; conditions: difference in signal between KI and DMSO treated samples at the end of experiments; for Swelling 5XCmax: key: 0 indicates that the drug had no effects (negative)
[4] = test system: isolated rat liver mitochondria; test: Mitochondrial toxicity, any endpoint, intact mitochondria and submitochondrial particles; assay type: biochemical
Description: Rats were anesthetized by an intraperitoneal injection of Nembutal and the liver perfused with PBS to remove the blood. The liver was then cut into small pieces and homogenized using a Dounce type homogenizer in the ice-cold isolation buffer (IB) containing 200 mM sucrose, 10 mM Tris-MOPS, 1 mM EGTA (pH 7.4). The sample was then centrifuged at 600g for 10 min. The supernatant was further centrifuged at 7500g for 10 min, and the pellets was washed once with the IB and centrifuged again at 7500g for 10 min to collect mitochondria. […] Before drug treatment, the protein concentration was adjusted to 1 mg/ml using appropriate buffer. […] Briefly, mitochondrial and cytosolic fractions from four different preparations using four rats were diluted using the Laemmli protein loading buffer and subject to SDS-PAGE with 4–20% gradient gels. The proteins were blotted to PVDF membranes and detected using antibodies against GAPDH, ATP5A, UQCRC2, SDHB, and NDUFB8.
The aliquoted stock solutions were kept for less than one month and each tube was used only once. The KIs were added to the mitochondria at 1:1000 dilutions. […] The Cmax data were from clinical trials which used FDA recommend dosages, route of administration, and duration. […] The final concentration of DMSO for drug treatment was always 0.1%, and control treatments were 0.1% DMSO.

[5] = test system: isolated rat liver mitochondria; conditions: positive control alamethicin treated samples
[6] = test system: isolated rat liver mitochondria; test: Mitochondrial ROS production (CM-H2DCFDA); conditions: DMSO treated samples set as 1
[7] = human therapeutic maximal blood concentration, ref product labeling, cited from earlier work
[8] = in vivo; cited from earlier work
[9] = ref product labeling, cited from earlier work

T1 sequence (Q920L2 35-656): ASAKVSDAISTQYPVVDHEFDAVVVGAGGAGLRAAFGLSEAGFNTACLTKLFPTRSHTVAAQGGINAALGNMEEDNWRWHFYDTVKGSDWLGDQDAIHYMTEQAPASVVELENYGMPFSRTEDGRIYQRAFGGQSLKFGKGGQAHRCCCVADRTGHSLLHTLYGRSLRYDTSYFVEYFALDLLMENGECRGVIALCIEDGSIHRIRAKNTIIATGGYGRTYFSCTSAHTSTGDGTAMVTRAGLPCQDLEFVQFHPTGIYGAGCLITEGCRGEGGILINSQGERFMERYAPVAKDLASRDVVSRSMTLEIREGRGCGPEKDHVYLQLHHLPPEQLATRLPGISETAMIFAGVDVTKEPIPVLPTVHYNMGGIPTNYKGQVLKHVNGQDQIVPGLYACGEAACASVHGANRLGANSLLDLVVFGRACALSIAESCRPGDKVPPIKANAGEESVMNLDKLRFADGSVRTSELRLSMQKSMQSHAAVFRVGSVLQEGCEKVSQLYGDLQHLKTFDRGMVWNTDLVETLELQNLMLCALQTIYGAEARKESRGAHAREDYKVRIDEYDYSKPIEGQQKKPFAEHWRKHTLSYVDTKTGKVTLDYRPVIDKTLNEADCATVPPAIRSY
T1 sequence (P21913 31-282): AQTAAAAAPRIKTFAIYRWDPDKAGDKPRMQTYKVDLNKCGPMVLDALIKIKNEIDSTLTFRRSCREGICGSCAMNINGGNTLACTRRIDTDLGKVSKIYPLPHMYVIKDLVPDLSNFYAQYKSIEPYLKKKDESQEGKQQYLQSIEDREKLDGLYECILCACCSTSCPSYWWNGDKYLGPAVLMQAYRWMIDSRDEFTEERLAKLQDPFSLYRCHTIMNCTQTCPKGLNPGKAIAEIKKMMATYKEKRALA
T1 sequence (Q641Z9 1-169): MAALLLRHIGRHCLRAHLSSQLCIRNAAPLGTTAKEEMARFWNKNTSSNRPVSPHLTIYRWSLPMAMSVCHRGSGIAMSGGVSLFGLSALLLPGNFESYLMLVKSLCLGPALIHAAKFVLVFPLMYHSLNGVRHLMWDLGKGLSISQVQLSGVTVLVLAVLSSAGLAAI
T1 sequence (Q6PCT8 57-159): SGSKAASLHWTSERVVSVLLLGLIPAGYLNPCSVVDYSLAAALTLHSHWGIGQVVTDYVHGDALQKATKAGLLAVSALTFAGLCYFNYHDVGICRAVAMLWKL

C=CC(=O)N1CCC[C@@H](n2nc(-c3ccc(Oc4ccccc4)cc3)c3c(N)ncnc32)C1 [Ibrutinib]
0: State 3 respiration driven by succinate at 1XCmax [1] | State 4 respiration driven by succinate at 1XCmax [1] | State 3 respiration driven by succinate at 2.5XCmax [1] | State 4 respiration driven by succinate at 2.5XCmax [1] | State 3 respiration driven by succinate at 5XCmax [1] | State 4 respiration driven by succinate at 5XCmax [1] | State 3 respiration driven by succinate at 10XCmax [1] | State 4 respiration driven by succinate at 10XCmax [1] | State 3 respiration driven by succinate at 20XCmax [1] | State 4 respiration driven by succinate at 20XCmax [1] | State 3 respiration driven by succinate at 30XCmax [1] | State 4 respiration driven by succinate at 30XCmax [1] | State 3 respiration driven by succinate at 50XCmax [1] | State 4 respiration driven by succinate at 50XCmax [1] | State 3 respiration driven by succinate at 100XCmax [1] | State 4 respiration driven by succinate at 100XCmax [1] | RCC I at 10XCmax (RCC I) | RCC II at 1.0XCmax (RCC II) | RCC II at 2.5XCmax (RCC II) | RCC II at 5XCmax (RCC II) | RCC II at 10XCmax (RCC II) | RCC II at 20XCmax (RCC II) | RCC II at 30XCmax (RCC II) | RCC II at 50XCmax (RCC II) | RCC II at 100XCmax (RCC II) | RCC III at 100XCmax (RCC III) | RCC IV at 50XCmax (RCC IV) | RCC V at 5XCmax (RCC V) | RCC V at 50XCmax (RCC V) | MMP measured by Rhodamine 123 at 1XCmax [2] | MMP measured by Rhodamine 123 at 2.5XCmax [2] | MMP measured by Rhodamine 123 at 5XCmax [2] | MMP measured by Rhodamine 123 at 10XCmax [2] | MMP measured by Rhodamine 123 at 20XCmax [2] | MMP measured by Rhodamine 123 at 30XCmax [2] | MMP measured by Rhodamine 123 at 50XCmax [2] | MMP measured by Rhodamine 123 at 100XCmax [2] | Swelling 1XCmax [3] | Swelling 2.5XCmax [3] | Swelling 5XCmax [3] | Swelling 10XCmax [3] | Swelling 20XCmax [3] | Swelling 30XCmax [3] | Swelling 50XCmax [3] | Swelling 100XCmax [3] | Cytochrome c release 1XCmax [5] | Cytochrome c release 2.5XCmax [5] | Cytochrome c release 5XCmax [5] | Cytochrome c release 10XCmax [5] | Cytochrome c release 20XCmax [5] | Cytochrome c release 30XCmax [5] | Cytochrome c release 50XCmax [5] | Cytochrome c release 100XCmax [5] | ROS measured by CM-H2DCFDA at 1XCmax [6] | ROS measured by CM-H2DCFDA at 2.5XCmax [6] | ROS measured by CM-H2DCFDA at 5XCmax [6] | ROS measured by CM-H2DCFDA at 10XCmax [6] | ROS measured by CM-H2DCFDA at 20XCmax [6] | ROS measured by CM-H2DCFDA at 30XCmax [6] | ROS measured by CM-H2DCFDA at 50XCmax [6] | ROS measured by CM-H2DCFDA at 100XCmax [6]
50 fold Cmax: lowest concentration causing significant mitochondrial toxicity ([4]; any endpoint)

Cc1ccc(C(=O)Nc2ccc(CN3CCN(C)CC3)c(C(F)(F)F)c2)cc1C#Cc1cnc2cccnn12 [Ponatinib]
0.14 µM: Cmax ([7]; read-out: Cmax at µM)
no effects: effects on intact mitochondria or submitochondrial particles ([4]; highest concentrations tested)
BBW: fatal DILI: Labeling for DILI [8] | labeling for DILI [8]
BBW: Heart Failure: Labeling for cardiotoxicity ([9]; BBW: black box warning, W&P: Warnings and Precautions)
0.073 µg/mL: Cmax (ng or µg/ml) [7]
1: DILI potential (based on labeling) [8] | Potential for cardiotoxicity (based on labeling) [9]
0: State 3 respiration driven by succinate at 1XCmax [1] | State 4 respiration driven by succinate at 1XCmax [1] | State 3 respiration driven by succinate at 2.5XCmax [1] | State 4 respiration driven by succinate at 2.5XCmax [1] | State 3 respiration driven by succinate at 5XCmax [1] | State 4 respiration driven by succinate at 5XCmax [1] | State 3 respiration driven by succinate at 10XCmax [1] | State 4 respiration driven by succinate at 10XCmax [1] | State 3 respiration driven by succinate at 20XCmax [1] | State 4 respiration driven by succinate at 20XCmax [1] | State 3 respiration driven by succinate at 30XCmax [1] | State 4 respiration driven by succinate at 30XCmax [1] | State 3 respiration driven by succinate at 50XCmax [1] | State 4 respiration driven by succinate at 50XCmax [1] | State 3 respiration driven by succinate at 100XCmax [1] | State 4 respiration driven by succinate at 100XCmax [1] | RCC I at 10XCmax (RCC I) | RCC II at 1.0XCmax (RCC II) | RCC II at 2.5XCmax (RCC II) | RCC II at 5XCmax (RCC II) | RCC II at 10XCmax (RCC II) | RCC II at 20XCmax (RCC II) | RCC II at 30XCmax (RCC II) | RCC II at 50XCmax (RCC II) | RCC II at 100XCmax (RCC II) | RCC III at 100XCmax (RCC III) | RCC IV at 50XCmax (RCC IV) | RCC V at 5XCmax (RCC V) | RCC V at 50XCmax (RCC V) | MMP measured by Rhodamine 123 at 1XCmax [2] | MMP measured by Rhodamine 123 at 2.5XCmax [2] | MMP measured by Rhodamine 123 at 5XCmax [2] | MMP measured by Rhodamine 123 at 10XCmax [2] | MMP measured by Rhodamine 123 at 20XCmax [2] | MMP measured by Rhodamine 123 at 30XCmax [2] | MMP measured by Rhodamine 123 at 50XCmax [2] | MMP measured by Rhodamine 123 at 100XCmax [2] | Swelling 1XCmax [3] | Swelling 2.5XCmax [3] | Swelling 5XCmax [3] | Swelling 10XCmax [3] | Swelling 20XCmax [3] | Swelling 30XCmax [3] | Swelling 50XCmax [3] | Swelling 100XCmax [3] | Cytochrome c release 1XCmax [5] | Cytochrome c release 2.5XCmax [5] | Cytochrome c release 5XCmax [5] | Cytochrome c release 10XCmax [5] | Cytochrome c release 20XCmax [5] | Cytochrome c release 30XCmax [5] | Cytochrome c release 50XCmax [5] | Cytochrome c release 100XCmax [5] | ROS measured by CM-H2DCFDA at 1XCmax [6] | ROS measured by CM-H2DCFDA at 2.5XCmax [6] | ROS measured by CM-H2DCFDA at 5XCmax [6] | ROS measured by CM-H2DCFDA at 10XCmax [6] | ROS measured by CM-H2DCFDA at 20XCmax [6] | ROS measured by CM-H2DCFDA at 30XCmax [6] | ROS measured by CM-H2DCFDA at 50XCmax [6] | ROS measured by CM-H2DCFDA at 100XCmax [6]
